Measured values published in PubChem BioAssay AID610 (The Scripps Research Institute Molecular Screening Center, 2007).
Activity calls are given as the source filed them. No rule for the calls is given here.

biological target: Nuclear receptor ROR-alpha (Homo sapiens) (UniProt P35398); test: RORA-driven reporter inhibition potency – cell-based, dose response (AID 610)
Sequence (P35398 whole entry, looked up): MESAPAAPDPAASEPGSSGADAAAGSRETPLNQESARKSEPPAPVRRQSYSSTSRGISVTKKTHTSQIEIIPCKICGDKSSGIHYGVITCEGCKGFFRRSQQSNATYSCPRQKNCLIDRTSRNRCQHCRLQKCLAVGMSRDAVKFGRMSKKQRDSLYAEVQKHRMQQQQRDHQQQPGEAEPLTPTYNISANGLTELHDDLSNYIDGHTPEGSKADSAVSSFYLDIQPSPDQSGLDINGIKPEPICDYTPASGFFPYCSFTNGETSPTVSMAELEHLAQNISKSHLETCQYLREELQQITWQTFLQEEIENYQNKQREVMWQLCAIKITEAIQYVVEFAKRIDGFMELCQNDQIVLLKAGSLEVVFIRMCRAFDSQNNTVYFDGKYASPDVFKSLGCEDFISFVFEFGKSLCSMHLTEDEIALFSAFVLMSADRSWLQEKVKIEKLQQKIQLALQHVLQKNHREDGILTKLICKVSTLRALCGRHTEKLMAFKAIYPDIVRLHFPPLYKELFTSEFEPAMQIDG

SMILES | IC50
CC(=O)CC1OC(=O)C(Br)=C1NCc1ccccc1 (centres undefined) | inactive
O=C(/C=C\Nc1ccc2c(c1)OCO2)c1ccccn1 | 1.52 µM
O=C(/C=C\Nc1ccccn1)c1ccc(Cl)cc1 | 8.35 µM
O=S(=O)(c1ccc2c(c1)C(=NO)c1cc(S(=O)(=O)N3CCCCC3)ccc1-2)N1CCCCC1 | 2.48 µM
COc1cccc2sc(Nc3nc(-c4ccccn4)cs3)nc12 | 4.57 µM
Cc1ccc(C(=O)/C=C/Nc2ccccn2)cc1 | 2.09 µM
COc1cc(/C=N/O)ccc1OCc1ccc(C(=O)O)cc1 | 0.67 µM
COC(=O)C1=C(CN2CCCc3ccccc32)NC(=O)NC1c1ccc(F)cc1 (centres undefined) | 6.23 µM
O=C(O)CCCCCN1C(=O)CSC1=S | > 99 µM (inactive)
